In the case of `*C#C/C(COS(=O)(=O)c1ccc(C)cc1)=C(/*)COS(=O)(=O)c1ccc(C)cc1` (repeat unit), the glass transition temperature is -73.00 °C.
The result for `*C(=O)Oc1ccc(-c2ccc(OC(=O)c3ccc4c(c3)C(=O)N(c3ccc(Oc5ccc(N6C(=O)c7ccc(*)cc7C6=O)cc5)cc3)C4=O)cc2)cc1` (repeat unit) reads 232.00 °C; that for `*C(=O)c1ccc(Oc2ccc(C3(c4ccc(Oc5ccc(*)s5)cc4)c4ccccc4-c4ccccc43)cc2)cc1` (repeat unit), 195.00 °C; that for `*CCCCCCCN1C(=O)c2ccc(C(=O)Oc3ccc(-c4ccc(OC(=O)c5ccc6c(c5)C(=O)N(*)C6=O)cc4)cc3)cc2C1=O` (repeat unit), 117.00 °C.
`*CCCCCCN1C(=O)c2ccc(C(=O)Oc3ccc(-c4ccc(OC(=O)c5ccc6c(c5)C(=O)N(*)C6=O)cc4)cc3)cc2C1=O` (repeat unit) came in with a glass transition temperature of 133.00 °C.
As to `*CCCCCN1C(=O)c2ccc(C(=O)Oc3ccc(-c4ccc(OC(=O)c5ccc6c(c5)C(=O)N(*)C6=O)cc4)cc3)cc2C1=O` (repeat unit), the glass transition temperature amounted to 147.00 °C.
`*CCCCN1C(=O)c2ccc(C(=O)Oc3ccc(-c4ccc(OC(=O)c5ccc6c(c5)C(=O)N(*)C6=O)cc4)cc3)cc2C1=O` (repeat unit) returned a glass transition temperature of 126.00 °C.
The result for `*CCCOCCCCOCCCN1C(=O)c2ccc(C(=O)Oc3ccc(-c4ccc(OC(=O)c5ccc6c(c5)C(=O)N(*)C6=O)cc4)cc3)cc2C1=O` (repeat unit) reads 70.00 °C; that for `*OP(=O)(Oc1ccc(-c2ccc(*)cc2)cc1)OC1CCCCC1` (repeat unit), 116.00 °C.
In turn, `*OP(=O)(Oc1ccc(Br)cc1)Oc1c(Br)cc(C(c2cc(Br)c(*)c(Br)c2)(C(F)(F)F)C(F)(F)F)cc1Br` (repeat unit) showed a glass transition temperature of 152.00 °C.
Turning to `*OP(=O)(Oc1ccc(C)cc1)Oc1c(C)cc(S(=O)(=O)c2cc(C)c(*)c(C)c2)cc1C` (repeat unit), the glass transition temperature is 128.00 °C.
`*OP(=O)(Oc1ccc([N+](=O)[O-])cc1)Oc1c(Br)cc(C(c2cc(Br)c(*)c(Br)c2)(C(F)(F)F)C(F)(F)F)cc1Br` (repeat unit) displayed a glass transition temperature of 154.00 °C.
Compound `*OP(=O)(Oc1ccccc1)Oc1c(Br)cc(C(c2cc(Br)c(*)c(Br)c2)(C(F)(F)F)C(F)(F)F)cc1Br` (repeat unit) registered a glass transition temperature of 140.00 °C.
Take `*O[Si](*)(C)CCCCCCOc1ccc(-c2ccc(C#N)cc2)cc1` (repeat unit): the glass transition temperature was determined as 10.00 °C.
`*O[Si](*)(C)CCCCCCOc1ccc(C(=O)Oc2ccc(C(=O)OCC(C)CC)cc2)cc1` (repeat unit) had a glass transition temperature of -9.00 °C.
`*O[Si](*)(C)CCCCCOc1ccc(/C=C/c2ccc(OC)cc2)cc1` (repeat unit) had a glass transition temperature of 52.00 °C.
`*O[Si](*)(C)CCCCCn1c2ccccc2c2ccccc21` (repeat unit) came in with a glass transition temperature of 7.00 °C.
The compound `*O[Si](*)(C)CCCOC(=O)c1cc(OC(=O)c2ccc(OCCOCCOCCOCCOCCOCCOC)cc2)ccc1OC(=O)c1ccc(OCCOCCOCCOCCOCCOCCOC)cc1` (repeat unit) came in with a glass transition temperature of -46.00 °C.
`*O[Si](*)(C)CCCOCCOCCOC` (repeat unit) gave a glass transition temperature of -90.10 °C.
For `*O[Si](*)(C)CCCOCCOCCOCCOC` (repeat unit), the glass transition temperature was -64.21 °C.
The result for `*O[Si](*)(C)CCCOCCOCCOc1ccc(COc2ccc3cc(C#N)ccc3c2)cc1` (repeat unit) reads 30.00 °C; that for `*O[Si](*)(C)CCCOc1ccc(C(=O)OCCOc2ccc(C(=O)OC3CCC4(C)C(=CCC5C4CCC4(C)C(C(C)CCCC(C)C)CCC54)C3)cc2)cc1` (repeat unit), 42.00 °C.
In turn, `*O[Si](*)(C)CCCOc1ccc(C(=O)Oc2ccc(-c3ccc(OC(=O)c4cc(OCCCCCCCCCCCC)c(OCCCCCCCCCCCC)c(OCCCCCCCCCCCC)c4)cc3)cc2)cc1` (repeat unit) had a glass transition temperature of 48.00 °C.
For `*O[Si](*)(C)CCCOc1ccc(C(=O)Oc2ccc(OC(=O)CCCCC(=O)OC3CC(C)CCC3C(C)C)cc2)cc1` (repeat unit), the glass transition temperature came out at 45.30 °C.
As to `*O[Si](*)(C)CCc1cc(-c2nnc(-c3ccc(OCCCCCCCCCCCC)cc3)o2)ccc1-c1nnc(-c2ccc(OCCCCCCCCCCCC)cc2)o1` (repeat unit), the glass transition temperature stood at 156.00 °C.
The result for `*O[Si](*)(C)CCc1cc(C(=O)Oc2ccc(OCCCCCCCCCCCC)cc2)ccc1-c1ccc(C(=O)Oc2ccc(OCCCCCCCCCCCC)cc2)cc1` (repeat unit) reads 76.00 °C.
For the compound `*O[Si](*)(C)OCCCCCCCCCCCOc1ccc(C2COC(c3ccc(OCC(C)CC)cc3)OC2)cc1` (repeat unit), the glass transition temperature is 30.00 °C.
The result for `*O[Si](*)(C)OCCOCCOCCOC` (repeat unit) reads -120.10 °C; that for `*O[Si](*)(C)OCCOCCOCCOCCOCCOCCOCCOCCOC` (repeat unit), -78.00 °C; that for `*O[Si](*)(C)c1c(F)c(F)c(F)c(F)c1F` (repeat unit), -25.00 °C.
`*O[Si](*)(C)c1ccccc1` (repeat unit) registered a glass transition temperature of -28 °C.
As for `*O[Si](*)(CC)CC` (repeat unit), the glass transition temperature was -139.00 °C.
`*O[Si](*)(CCCOCCOC)CCCOCCOC` (repeat unit) registered a glass transition temperature of -55.00 °C.
As for `*O[Si](*)(CCCOCCOCCOC)CCCOCCOCCOC` (repeat unit), the glass transition temperature is -63.40 °C.
The result for `*O[Si](*)(CCCOCCOCCOCCOCCOCCOC)CCCOCCOCCOCCOCCOCCOC` (repeat unit) reads -69.70 °C; that for `*O[Si](*)(c1ccccc1)c1ccc(OC(C)(C)C)cc1` (repeat unit), 56.00 °C; that for `*O[Si](C)(C)O[Si](C)(C)O[Si](C)(C)O[Si](C)(C)O[Si](C)(C)O[Si](C)(C)Oc1c(*)c2ccccc2c2ccccc12` (repeat unit), -68.00 °C.
`*O[Si](C)(C)O[Si](C)(C)O[Si](C)(C)O[Si](C)(C)Oc1c(*)c2ccccc2c2ccccc12` (repeat unit): the glass transition temperature was -35.00 °C.
Compound `*Oc1c(-c2ccccc2)cc(*)cc1-c1ccccc1-c1ccccc1` (repeat unit) showed a glass transition temperature of 211.00 °C.
The compound `*Oc1c(Br)cc(C(c2cc(Br)c(OC(*)=O)c(Br)c2)(C(F)(F)F)C(F)(F)F)cc1Br` (repeat unit) displayed a glass transition temperature of 206.00 °C.
Regarding `*Oc1c(Br)cc(S(=O)(=O)c2cc(Br)c(OC(*)=O)c(Br)c2)cc1Br` (repeat unit), the glass transition temperature came out at 196.00 °C.
In turn, `*Oc1c(C)cc(*)cc1C(C)CCCC` (repeat unit) gave a glass transition temperature of 85.00 °C.
In turn, `*Oc1c(C)cc(*)cc1C(C)CCCCC` (repeat unit) came in with a glass transition temperature of 60.00 °C.
The result for `*Oc1c(C)cc(*)cc1C(C)CCCCCCCC` (repeat unit) reads 20.00 °C.
The compound `*Oc1c(Cl)cc(C(=C(Cl)Cl)c2cc(Cl)c(OC(*)=O)c(Cl)c2)cc1Cl` (repeat unit) showed a glass transition temperature of 250.00 °C.
In turn, `*Oc1c(Cl)cc(C2(c3cc(Cl)c(OC(*)=O)c(Cl)c3)CC3CC2C2CCCC32)cc1Cl` (repeat unit) came in with a glass transition temperature of 281.00 °C.
Turning to `*Oc1c(OC)cc(*)cc1OC` (repeat unit), the glass transition temperature was 174.10 °C.
The result for `*Oc1ccc(-c2cc(-c3ccccc3)c(-c3ccc(OC(=O)c4ccc(C(*)=O)cc4-c4ccccc4)cc3)c(-c3ccccc3)c2-c2ccccc2)cc1` (repeat unit) reads 225.00 °C; that for `*Oc1ccc(-c2ccc(/N=N/c3ccc(C(*)=O)cc3)cc2)cc1` (repeat unit), 147.00 °C; that for `*Oc1ccc(-c2ccc(OC(=O)c3ccc(C(*)=O)cc3)cc2)cc1` (repeat unit), 267.00 °C.
Compound `*Oc1ccc(-c2ccc(OC(=O)c3ccc(C(*)=O)cc3Sc3ccc4ccccc4c3)cc2)cc1` (repeat unit) displayed a glass transition temperature of 141.00 °C.
The compound `*Oc1ccc(-c2ccc(OC(=O)c3cccc(C(*)=O)c3)cc2)cc1` (repeat unit) returned a glass transition temperature of 185.50 °C.
In turn, `*Oc1ccc(C2(c3ccc(Oc4ccc(C(=O)C(=O)c5ccc(*)cc5)cc4)cc3)c3ccccc3-c3ccccc32)cc1` (repeat unit) registered a glass transition temperature of 242.00 °C.
`*Oc1ccc(C2(c3ccc(Oc4ccc(C(=O)c5ccc(*)cc5)cc4)cc3)c3ccccc3-c3ccccc32)cc1` (repeat unit) returned a glass transition temperature of 252.00 °C.
Turning to `*Oc1ccc(C2(c3ccc(Oc4ccc(C(=O)c5ccc(C(=O)c6ccc(*)c(C(F)(F)F)c6)cc5)cc4C(F)(F)F)cc3)c3ccccc3-c3ccccc32)cc1` (repeat unit), the glass transition temperature is 229.00 °C.
In turn, `*Oc1ccc(C2(c3ccc(Oc4ccc(C(=O)c5ccc(Oc6ccc(C(=O)c7ccc(*)cc7)cc6)cc5)cc4)cc3)c3ccccc3-c3ccccc32)cc1` (repeat unit) gave a glass transition temperature of 231.00 °C.
Take `*Oc1ccc(Oc2c(F)c(F)c(-c3c(F)c(F)c(*)c(F)c3F)c(F)c2F)cc1S(=O)(=O)O` (repeat unit): the glass transition temperature amounted to 120.00 °C.
The result for `*c1ccc(Oc2cc3ccccc3cc2Oc2ccc(N3C(=O)c4ccc(Oc5cc6ccccc6cc5Oc5ccc6c(c5)C(=O)N(*)C6=O)cc4C3=O)cc2)cc1` (repeat unit) reads 222.00 °C.
Consider `*c1ccc(Oc2ccc(-c3ccc4nc(Oc5cc(-c6ccccc6)c6cc(*)ccc6n5)cc(-c5ccccc5)c4c3)cc2)cc1` (repeat unit), for which the glass transition temperature stood at 268.50 °C.
Regarding `*c1ccc(Oc2ccc(N3C(=O)c4ccc(Oc5cc6ccccc6cc5Oc5ccc6c(c5)C(=O)N(*)C6=O)cc4C3=O)cc2)cc1` (repeat unit), the glass transition temperature stood at 220.50 °C.
Compound `*c1cccc(N2C(=O)c3ccc(Oc4cc5ccccc5cc4Oc4ccc5c(c4)C(=O)N(*)C5=O)cc3C2=O)c1` (repeat unit) returned a glass transition temperature of 237.00 °C.

The values are drawn from the PolyMetriX glass transition set.
